{
  "source": "patent US20150038694A1",
  "about": "“GLUCOSE D[…] TO ARSENIC FOR USE IN THE TREATMENT OF TUMOUR” (XENUS SRL, priority 2012, published 2015)",
  "key": {"[1]": {"system": "cellular line of human neuroblastoma (SK-N-BE)", "test": "MTT test (reduction of tetrazolium salts) on human neuroblastoma cells", "type": "cell-based", "settings": "for reduction of the cell survival (formazan absorbance data): final concentrations 10-30-50-100 and 200 μM, forty-eight, seventy-two and ninety-six hours, absorbance at 570 nm; for morphologic changes visible with an optical microscope (loss of adherence to the plate, roundish shape with irregular outlines): treated cells", "from_the_text": "(§1) The compound GD152.186 (PM 449,4) produced by means of above mentioned synthesis process, has been tested in a series of preclinical testing on cellular lines of human tumors, and in particular on a cellular line of human neuroblastoma (SK-N-BE) and on a cellular line of human promyelokytic leukemia (HL60).\nThe culture medium used for growing the SK-N-BE cells is DMEM High Glucose (Dulbecco's Modified Eagle Medium) with 10% FBS (fetal bovine serum), 1% L-Glutamine and 1% Penicillin/Streptomycin antibiotics.\n(§2) As a positive control, arsenic trioxide (As2O3, Sigma-Aldrich) has been used, as its activity has already been tested on cellular lines of human neuroblastoma and human promyelokytic leukemia.\n(§3) The compound GD152.186 has been dissolved in sterile water so as to reach the final concentrations of 100-300-500-1000-2000 μM.\n(§4) The test used for evaluating the persistence of tumor cells after the contact with said compound GD152.186 is the MTT test (reduction of tetrazolium salts).\nSaid test is based on the ability of the mitochondrial respiratory enzyme of the cells, usually called succinate tetrazolium reductase, of reducing a tetrazolium salt (3-[4,5-dimethylthiazol-2-yl]-2,5-diphenyltetrazolium bromide (MTT, Sigma Aldrich)) into an insoluble compound of blue colour, usually called formazan.\nSaid reduction process occurs only in living cells and not in dead or damaged ones, consequently, the amount of formazan produced is directly proportional to the number of cells metabolically active in the tested sample.\n96-well plates have been used for performing the tests, wherein in each well 5.000 (SK-N-BE) cells or 50.000 (HL60) cells have been sown, suspended in 180 μL of medium and then incubated at 37° C. and 5% CO2.\nForty-eight hours later, the cells have been treated with 20 μL of growing concentrations (in six replicates) of arsenic trioxide (100-300-500-1000 μM) and of GD152.186 compound (100-300-500-1000-2000 μM), so as to obtain inside each single well the final concentrations of 10-30-50-100 and 200 μM.\nTo one six-well column no compound is added but only 20 μL of sterile water, for following the natural growth of the cells.\nThe plates are incubated again for forty-eight, seventy-two and ninety-six hours, at the end thereof the test is performed.\nTo each single well 20 μL of MTT solution (5 mg·m-1 in sterile […]) have been added, giving an incubation time of three hours, functional to the formation of formazan.\nThen, the supernatant is removed from each well and 200 μL of DMSO are added.\nAfter about ten minutes the concentration level of formazan has been taken by means of a spectrophotometer set at a wave length of 570 nm."}, "[2]": {"system": "cellular line of human promyelokytic leukemia (HL60)", "test": "MTT test (reduction of tetrazolium salts) on human promyelokytic leukemia cells", "type": "cell-based", "settings": "increasing concentrations", "protocol": "as §1\nInstead, the HL60 cells grow in suspension at a temperature of 37° C. and in 5% CO2, and the culture medium used is RPMI 1640 with 10% FBS (fetal bovine serum), 1% L-Glutamine and 1% Penicillin/Streptomycin antibiotics.\nas §2, §3, §4\nSaid test is based on the ability of the mitochondrial respiratory enzyme of the cells, usually called succinate tetrazolium reductase, of reducing a tetrazolium salt (3-[4,5-dimethylthiazol-2-yl]-2,5-diphenyltetrazolium bromide (MTT, Sigma Aldrich)) into an insoluble compound of blue colour, usually called formazan. […]"}},
  "note": "Entries after “also recorded” stand apart in the source; their conditions may differ.",
  "data": [
    {"compound": "arsenic trioxide [reference compound]", "values": [
      {"measurement": "reduction of the cell survival (formazan absorbance data)", "setting": "[1]", "result": "reduction of the cell survival is strictly dependent on the arsenic trioxide dosage and on the time of exposure"},
      {"measurement": "morphologic changes visible with an optical microscope (loss of adherence to the plate, roundish shape with irregular outlines)", "setting": "[1]", "result": "morphologic changes have been found"},
      {"measurement": "reduction of the cell survival (formazan absorbance data), HL60 cells", "setting": "[2]", "result": "reduction of the cell survival"}
    ]},
    {"compound": "OC[C@H]1O[C@H](CCNc2ccc([As]3SCCS3)cc2)[C@H](O)[C@@H](O)[C@@H]1O", "note": "[GD152.186]", "values": [
      {"measurement": "reduction of the cell survival (formazan absorbance data)", "setting": "[1]", "result": "reduction of the cell survival is directly depending on the dosage of the GD152.186 compound and on the time of exposure; also recorded: most visible when the cells have come into contact with high concentrations (100-200 μM)"},
      {"measurement": "morphologic changes visible with an optical microscope (loss of adherence to the plate, roundish shape with irregular outlines)", "setting": "[1]", "result": "morphologic changes have been surprisingly detected"},
      {"measurement": "reduction of the cell survival (formazan absorbance data), HL60 cells", "setting": "[2]", "result": "reduction of the cell survival"}
    ]}
  ]
}
